From patent US4301313A, “Halogenated ethynyl biphenyls” (Eli-Lilly and Company, priority 1974, dated 1981)
Values joined by “and” are separate entries in the source; they are usually repeats but may differ in a detail not shown here. Identical values can stand only once.

Experiments:
[1] = ultraviolet-induced erythema blocking test, oral (modified Winder method); assay type: in vivo, guinea pig (male albino); settings: Cavia porcellus, guinea pig, weighted scores 1.0-2.5 h after UV, dose which provides 50% inhibition
Experimental: The compounds of the present invention were evaluated for anti-inflammatoryactivity by the ultraviolet-induced erythema blocking test. The test procedures were a modification of the Winder method (Winder, C. V.; Wax, J.; Burr, V.; Been, M.; and Posiere, C. E.: A Study of Pharmacological Influences on Ultraviolet Erythema in Guinea Pigs. Arch. Int. Pharmacodyn. 116: 261, 1958). Male albino guinea pigs weighing 240-300 gm. were used. The hair on the back was clipped and chemically depilated 15-18 hours before each experiment. The animals were fasted overnight, and on the day of the experiment, were randomized and placed in clear plastic partitioned holders 10×20 cm. wide and 15 cm. high.
The compounds to be tested were suspended in 1% methyl cellulose in water, utilizing a tissue homogenizer. The suspensions were administered orally in a volume of 2.0 ml./kg. of body weight. Control animals received an equal amount of the vehicle.
The source of ultraviolet light was a Hanovia lamp (Kromayer-Model 10). A notebook reinforcement ring was placed upon the lens of the lamp to provide an area of contrast for grading purposes. The lens was then placed in contact with the skin of the guinea pig's back. Exposure time to UV was for a period of 4 seconds. Beginning one hour after exposure and thereafter at half-hour intervals for another 11/2 hours, the degree of resulting erythema was graded by an arbitrary scoring system based upon the degree of contrast and redness formed. Anti-inflammatory agents delay the development of the erythema and have their greatest effect at the initial grading periods. The scores were, therefore, weighted by factors of 4, 3, 2, and 1 at the 1.0, 1.5, 2.0, and 2.5 hour scoring times, respectively. The erythema was graded as follows:
Total scores from each treatment group of four guinea pigs were compared to the scores of the control group. The percent inhibition was calculated as follows: [formula] In the case of compounds showing inhibition, retesting was carried out at a plurality of doses to enable calculation of an ED50 for each such compound. "ED50 " designates that dose which provides 50% inhibition. Calculation of the ED50 was either by a standard linear regression method or by estimation from a dose-response curve of three or more points. The compounds so tested and their ED50 s were as follows: […]

[2] = adjuvant-induced arthritis test (paw volume); assay type: in vivo, rat (male albino); settings: rat, oral
[3] = carrageenin-induced hind paw inflammation; assay type: in vivo; settings: Rattus norvegicus
Experimental: (§1) Representative compounds were also evaluated for anti-inflammatory activity in the test method described by C. A. Winter at 111 Proc. Soc. Exp. Biol. Med., 544 (1962). In this method, inflammation is created by injecting carrageenin into the hind paw of rats. Test compounds are administered prior to injection to determine percent inhibition of the subsequent inflammation, in comparison with control animals.

[4] = carrageenin induced test, compound administered about 20 hours prior; assay type: in vivo; settings: rat, dose 10 (unit not given), about 20 hours prior to test
Experimental: as §1
Each of 4-biphenylylacetylene and (4-(2-fluorophenyl)phenyl)acetylene was evaluated again in the carrageenin induced test method reported in Examples 60-80. However, in these tests, the compound was administered about 20 hours prior to the test procedures.

[5] = analgesic activity, acetic acid-induced writhing; assay type: in vivo, mouse (albino male); settings: mouse, p.o., dose reducing writhing frequency by 50%; 30, 90, 180 minutes after administration
Experimental: Representative compounds were also evaluated for analgesic activity. The evaluation was conducted by using acetic acid-induced writhing in mice as the pain model. Clinically effective analgesis are effective when tested in this model: see Koster et al., "Acetic Acid for Analgesic Screening," 18 Fed. Proc. 412 (1959).
In a method similar to that reported by Koster et al., standard strain albino male mice weighing 20-22 grams were fasted overnight. The respective compound or vehicle (as control) was administered by gastric lavage (p.o.). Each compound was administered in an aqueous suspension of 1% methylcellulose in water. […] At 30, 90, and 180 minutes after administration, writhing was induced by the intraperitoneal administration of 55 mg./kg. of acetic acid (0.55%). Each treatment group consisted of 5 mice and separate groups were examined at each observation time. The total number of writhes for the treatment group were counted in a 10-minute observation period starting 5 minutes after the acetic acid administration. The treatment totals were compared to controls and a percent inhibition calculated as follows: [formula] […] An ED50, which represented the dose that would reduce the writhing frequency by 50%, was estimated from a dose-reponse curve of three or more points. A dose range was reported if only two points were availale for the dose response curve and they bracketed the 50% level. If data was available at 100 mg./kg., only, then the estimated ED50 was reported simply as less than 100 (<100).

[6] = dose not printed (line below dose 25)

Row | SMILES | ED50 [1] [mg/kg] | inhibition in vivo at 3 mg/kg [3] [%] | inhibition in vivo at 10 mg/kg [3] [%] | inhibition in vivo at 50 mg/kg [3] [%] | Estimated ED50 [5] [mg/kg] | inhibition in vivo at 30 mg/kg [3] [%] | other results
1 | C#Cc1ccc(-c2ccccc2)cc1 [4-biphenylylacetylene, 4-Biphenylylacetylene] | 0.9 | 36 | 42 | 41 | 50 |  | Percent Inhibition of Volume Increase, Day 7 ([2]; dose 0.3 (unit not given)): 15%; Percent Inhibition of Volume Increase, Day 14 ([2]; dose 0.3 (unit not given)): 0%; Percent Inhibition of Volume Increase, Day 7 ([2]; dose 1 (unit not given)): 0%; Percent Inhibition of Volume Increase, Day 14 ([2]; dose 1 (unit not given)): 0%; Percent Inhibition of Volume Increase, Day 7 ([2]; dose 3 (unit not given)): 14%; Percent Inhibition of Volume Increase, Day 14 ([2]; dose 3 (unit not given)): 7%; Percent Inhibition of Volume Increase, Day 7 ([2]; dose 25 (unit not given)): 29%; Percent Inhibition of Volume Increase, Day 14 ([2]; dose 25 (unit not given)): 37%; Percent Inhibition of Volume Increase, Day 7 [2, 6]: 37%; Percent Inhibition of Volume Increase, Day 14 [2, 6]: 23%; inhibition in vivo at 0.5 mg/kg ([3]; 0.5 mg./kg.): 0%; inhibition in vivo at 5 mg/kg ([3]; 5 mg./kg.): 37%; inhibition in vivo at 20 mg/kg ([3]; 20 mg./kg.): 45%; % Inhibition [4]: 44% and 28%
2 | C#Cc1ccc(-c2ccccc2)c(Cl)c1 [(3-chloro-4-phenylphenyl)acetylene, (3-Chloro-4-phenylphenyl)acetylene] | 0.033 | 41 | 62 |  | 30 |  | Percent Inhibition of Volume Increase, Day 7 ([2]; dose 0.1 (unit not given)): 21%; Percent Inhibition of Volume Increase, Day 14 ([2]; dose 0.1 (unit not given)): 36%; Percent Inhibition of Volume Increase, Day 7 ([2]; dose 0.3 (unit not given)): 56%; Percent Inhibition of Volume Increase, Day 14 ([2]; dose 0.3 (unit not given)): 50%; Percent Inhibition of Volume Increase, Day 7 ([2]; dose 1 (unit not given)): 34%; Percent Inhibition of Volume Increase, Day 14 ([2]; dose 1 (unit not given)): 41%; Percent Inhibition of Volume Increase, Day 7 ([2]; dose 3 (unit not given)): 30%; Percent Inhibition of Volume Increase, Day 14 ([2]; dose 3 (unit not given)): 45%; inhibition in vivo at 0.3 mg/kg ([3]; 0.3 mg./kg.): 23%
3 | C#Cc1ccc(-c2c(F)cccc2F)cc1 [(4-(2,6-difluorophenyl)phenyl)acetylene, (4-(2,6-Difluorophenyl)phenyl)acetylene] | 12 | 7 | 34 | 49 | < 100 | 37 | 
4 | C#Cc1ccc(-c2ccccc2Cl)cc1 [(4-(2-chlorophenyl)phenyl)acetylene, (4-(2-Chlorophenyl)phenyl)acetylene] | 0.8 |  |  | 52 | 20 to 100 |  | 
5 | C#Cc1ccc(Oc2ccccc2F)cc1 [(4-(2-fluorophenoxy)phenyl)acetylene, (4-(2-Fluorophenoxy)phenyl)acetylene] | 16.5 | 28 | 45 |  | < 100 | 68 | 
6 | C#Cc1ccc(-c2cccc(F)c2)cc1 [(4-(3-fluorophenyl)phenyl)acetylene, (4-(3-Fluorophenyl)phenyl)acetylene] | 3 |  | 17 |  | 35 |  | 
7 | C#Cc1ccc(-c2ccccc2C)cc1 [(4-(o-tolyl)phenyl)acetylene, (4-(o-Tolyl)phenyl)acetylene] | 0.9 | 16 | 6 | 48 | 35 | 53 | 
